# Experiments:
# Format in all cases: cell-based, human
# HEK 293FT cells = assay: Flow enabled tracking of connexosomes in HEK 293FT cells (FETCH); details: for homotypic FETCH score (docking): homotypic pairing of fluorescent C-terminal fusion constructs, Q2/(Q1+Q2+Q3); for heterotypic FETCH score when paired with Cx43: co-plated with cells expressing Cx43
# Protocol: FETCH analysis is fundamentally a two-component system. To complete FETCH analysis, replica multi-well plates were transfected with either of the two components being evaluated. The media of transfected wells was changed 16-18 hrs post-transfection and cells were trypsinized and experimental counterparts were combined at ˜20 hrs post-transfection. The entirety of combined samples were then plated onto new, 10 μg/mL Fibronectin coated wells of the same size, resulting in hyperdensity and over confluency. Following co-plating, samples were incubated for ˜20 hr-24 hrs, at which point samples were trypsinized, resuspended in phosphate buffered saline with 10 U/mL DNAse and fixed with paraformaldehyde (f/c of 1.5%). Co-plated samples in 96 well plates were resuspended to a final volume of ˜150 μL, samples from 24-well plates were resuspended to a final volume of ˜600 μL.
# Flow cytometry data was collected on either a BD FACSCanto II (2-color experiments and high-throughput 96-well plates; 488 nm and 633 nm lasers), which utilizes the BD FACSDiVa software. Samples were analyzed in two selection gates prior to their fluorescence evaluation. First, presumable HEK cells were identified by evaluating sample forward vs side scatter area. Next, single cells were selected by evaluating cells that maintained a linear correlation of forward scatter height to forward scatter area. Finally, the fluorescence profiles of each sample were generated.
# Each FETCH experiment produces “*.fcs” files that contain all the channel data for fluorescence in the sample. The automated pipeline loads these files, extracts FSC-A, SSC-A, and FSC-H. Depending on the machine used, green channel was loaded as 1-A or as FITC-A. For the red channel, both APC-A (RFP670) with PE-A (mApple) can be used or 5-A(RFP670) can be used. Next, the code produces two matrices containing SSC-A with FSC-A, and FSC-A with FSC-H, respectively.
# The first gate is drawn on the FSC-A vs SSC-A axes to exclude cellular debris which clusters in the lower left corner and the cells that are saturating the laser (at the max of both axes). On an FSC-A vs SSC-A plot, the cellular debris usually is smoothly transitioning into the population of intact cells, therefore a Gaussian kernel density estimator with the estimator bandwidth selection defined by the Scott's Rule is used to draw contours around the data in SSC-A vs FSC-A matrix. Next, a set of heuristics was used to determine which of the contour lines should be used to define the first gate. Specifically, cellular debris usually clusters below 25000 on both axes, so any contour that includes values at or below is excluded. Similarly, any contour within a 1000 of the maximum value of each axis is also excluded. Of the remaining contours, the largest one is chosen, and an oval equation is fitted to the points defining that contour to attenuate occasional protrusions of the contour that tap into cellular debris population in rare cases. The fitted oval becomes the first gate.
# For all the elements inside of the first gate, a second gate was drawn in the axis of FSC-A and FSC-H to exclude non-single cells. For the second gate, a line was fit to all the points. Next, for each point, a norm to the fit line was found and a standard deviation of all such norms was found. Using this standard deviation, a second gate 4 standard deviations away from the fitted line was defined on both sides and excluded all the points outside of this gate.
# Upon applying the first two gates, the data was finally plotted with the red fluorophore on the y axis and the green fluorophore on the x axis. If a sample contained more than two fluorophores, then the last gate was drawn for each possible combination. Since some readings are below zero due to fluorescence compensation, all the data points were shifted by the smallest value along both axes and then a natural log of fluorescence levels was taken. […]
# HeLa cells = assay: FETCH in HeLa cell line; details: compared with HEK 293FT
# Description: (§1) For FETCH to be successful, cells must overexpress Cx-FP constructs to a sufficient degree to promote observable fluorescence exchange.
# 293 cells = assay: FETCH in 293 cell line; details: compared with HEK 293FT
# Description: as §1
Substance,homotypic FETCH score (docking) (HEK 293FT cells),other results
"Cx31.1: human connexin 31.1 (GJB5), C-terminal fluorescent fusion protein",failed to generate a significant homotypic FETCH score,
"Cx31.3: human connexin 31.3, C-terminal fluorescent fusion protein",failed to generate a significant homotypic FETCH score,
"Cx31.9: human connexin 31.9 (GJD3), C-terminal fluorescent fusion protein",failed to generate a significant homotypic FETCH score,
"Cx32: human connexin 32 (GJB1), C-terminal fluorescent fusion protein",significantly positive,heterotypic FETCH score when paired with Cx43 (HEK 293FT cells): failed to dock
"Cx36: human connexin 36 (GJD2), C-terminal fluorescent fusion protein",significantly positive,heterotypic FETCH score when paired with Cx43 (HEK 293FT cells): failed to dock
Cx43-ELs-Cx26: chimeric construct of the intracellular and transmembrane regions of Cx43 and the ELs of Cx26,,FETCH docking when paired with Cx26 (HEK 293FT cells; co-plated with cells expressing Cx26): preferentially docked; heterotypic FETCH score when paired with Cx43 (HEK 293FT cells): not Cx43
"Cx43: human connexin 43 (GJA1), expressed as C-terminal fluorescent fusion protein",significantly positive,FETCH score (HeLa cells): substantially lower; FETCH score (293 cells): substantially lower
"Cx45: human connexin 45 (GJC1), C-terminal fluorescent fusion protein",significantly positive,heterotypic FETCH score when paired with Cx43 (HEK 293FT cells): positive
"Cx46: human connexin 46 (GJA3), C-terminal fluorescent fusion protein",failed to generate a significant homotypic FETCH score,
"Cx50: human connexin 50 (GJA8), C-terminal fluorescent fusion protein",failed to generate a significant homotypic FETCH score,
"Cx59: human connexin 59 (GJA9), C-terminal fluorescent fusion protein",failed to generate a significant homotypic FETCH score,
"Cx62: human connexin 62 (GJA10), C-terminal fluorescent fusion protein",failed to generate a significant homotypic FETCH score,
D190A: random alanine scanning mutation of the Cx43 extracellular loops,retained their ability to homotypically dock,
S182A: random alanine scanning mutation of the Cx43 extracellular loops,retained their ability to homotypically dock,
